Assay results as given in ChEMBL document CHEMBL3045509, “Oxadiazolo pyrrolidine carboxamides as enoyl-ACP reductase inhibitors: design, synthesis and antitubercular activity screening” (2013).
Values after ≈ are worked out from the molar mass of the structure shown.

Test system: Mycobacterium tuberculosis
Test: Antitubercular activity against Mycobacterium tuberculosis H37Rv MTCC 300 after 7 days by Alamar blue assay
Type: functional
Conditions: H37Rv MTCC 300, 168 h

| SMILES | MIC [µg/mL] |
| --- | --- |
| O=C(Nc1nnc(-c2ccc([N+](=O)[O-])cc2)o1)C1CC(=O)N(c2ccccc2)C1 (stereo unspecified) | 25 (≈ 63.6 µM) |
| COc1ccc(-c2nnc(NC(=O)C3CC(=O)N(c4ccccc4)C3)o2)cc1 (stereo unspecified) | 3.12 (≈ 8.26 µM) |
| Cc1ccc(-c2nnc(NC(=O)C3CC(=O)N(c4ccccc4)C3)o2)cc1 (stereo unspecified) | 50 (≈ 138 µM) |
| O=C(Nc1nnc(-c2ccc(Cl)cc2)o1)C1CC(=O)N(c2ccccc2)C1 (stereo unspecified) | 25 (≈ 65.3 µM) |
| O=C(Nc1nnc(-c2ccccc2)o1)C1CC(=O)N(c2ccccc2)C1 (stereo unspecified) | 12.5 (≈ 35.9 µM) |
| NNC(=O)c1ccncc1 [ISONIAZID] | 0.25 (≈ 1.82 µM) |
